One assay relates to 3T3-L1 adipocytes. Description: Screening of methylated xylose derivatives, dGlc uptake assay (Table 1). It is filed as cell-based. Conditions: Mean±SEM (n=3-6); for HEXOSE UPTAKE (Percent of Control) Without Insulin: 3T3-L1 adipocytes 24 hr at 20 mM glucose, test compounds 0.1-20.0 mM, 2-45 hr; for HEXOSE UPTAKE (Percent of Control) With Insulin: as E1, 500 nM insulin 30 min prior to uptake assay. An excerpt:
There are five carbon atoms in xylose available for chemical modifications. Each of these atoms was methylated by modifications of published chemical procedures [Bollenback, G. N. (1963) In Methods in carbohydrate chemistry, vol. 2 (Whistler, R. L. and Wolfrom, M. L., eds.), pp. 326-331, Academic Press, New York; Bowering, W. and Timel, T. (1958) Can. J. Chem. 36, 283-285; Levine, P. and Raymomd, A. (1933) J. Biol. Chem. 102, 331-344; Takeo, K. (1992) Carbohyd. Res. 224, 311-318]. All compounds were purified by HPLC and their structure verified by NMR spectroscopy. […] At the end of the incubation period the cells were taken for a standard [^3H]-2-deoxy-D-glucose uptake assay in the absence or the presence of 500 nM insulin (30 min exposure prior to the uptake assay).
3T3-L1 adipocytes and L6 myotubes were maintained for 24 hr at 20 mM glucose. Test compounds were added (0.1-20.0 mM) and the cells were incubated further for 2-45 hr. At the end of the incubation periods the cells were washed and taken for a standard [^3H]2-deoxy-D-glucose (dGlc) uptake assay. Uptake values (given for control cells) are in nmol dGlc/mg protein/min. Mean±SEM (n=3-6).
(§1) Uptake assay of the tritiated glucose analogue, 2-deoxy-D-glucose, is routinely performed as described in [Sasson, S. and Cerasi, E. (1986) J. Biol. Chem. 261, 16827-16833].

A further assay relates to L6 myotubes. The experiment in a line: dGlc uptake assay in L6 myotubes. It is filed as cell-based, rat. As to the method:
(§2) FIG. 10: Western blot depicting effect of 3-O-propyl-D-xylose (EH-114), and 1,3-O-dimethylxylopyranoside (EH-101) on the total cell content and plasma membrane abundance of GLUT-4 in the absence or presence of insulin. L6 myotubes were maintained for 48 hr at 23 mM Glucose. The cells were than washed and received fresh medium containing the indicated additions and incubated for additional […]. Insulin was added during the last 30 min of incubation before the dGlc uptake assay.
FIG. 11A: Effect of LY-249002, a PI3-kinase inhibitor, on insulin, D-xylose, EH-101 and EH-114-mediated glucose uptake. L6 myotubes were treated as described in the legend to FIG. 10. The glucose concentration in the culture medium was 23.0 mM. The concentration of LY-294002 was 60 μM. At the end of incubation the cells were taken for the standard dGlc uptake assay. Mean±SEM, n=3.
(§3) GLUT-1 and GLUT-4 mediate glucose entry into L6 myotubes. It is established that GLUT-4 is translocated effectively and rapidly to the plasma membrane upon insulin treatment. The inventors looked at the effect of 3-O-propyl-D-xylose EH-114) and 1,3-O-dimethylxylopyranoside (EH-101) on the total cell content and plasma membrane abundance of these transporters in the absence or presence of insulin. L6 myotubes were maintained at 5.0 or 23.0 mM glucose for 48 hr and EH-114 and EH-101 were present during the last 24 hr. The cells were then taken for the standard [^3H]-2-deoxy-D-glucose uptake assay and for the biotinylation procedure for determining the amount of GLUT-1 and GLUT-4 in the plasma membrane. High glucose levels decreased the hexose transport rate by ˜50%. Insulin augmented the transport nearly 2-fold in both cases. EH-114 and EH-101 increased the transport rate 2-3-fold in the absence of insulin. Together with insulin the uptake rate was increased nearly 3-fold.
The inventors also tested the hypothesis that the active D-xylose derivatives augment the hexose transport capacity in L6 myotubes by translocating GLUT-4 to the plasma membrane not via the common insulin-regulated pathway. For this experiment, a selective inhibitor of the enzyme PI3-kinase, LY-249002, which is a key enzyme in the cellular transduction mechanism of insulin, was utilized. […] These findings also agree well with the longer onset of action of these derivatives as compared to the rapid action of insulin. Similar results were obtained when LY-249002 was present together with the derivatives throughout the entire incubation period.
as §1

Assay [1] concerns glucose uptake in cultured cells. The experiment in a line: In vitro glucose uptake / hexose transport in cultured cells with xylose derivatives (Table 2). The class given is cell-based. The following applies: for EC50 / ECmax: EC = Effective concentration. As to the method:
Table 2 summarizes in vitro results obtained with some of these newly synthesized xylose derivatives.
as §1
All new compounds are screened and tested first in various insulin-sensitive cell cultures used routinely in the laboratory (skeletal muscle and adipose cell lines). In addition these drugs were tested in non-insulin-sensitive cells such as primary cultures of bovine and porcine vascular endothelial and smooth muscle cells. Active compounds were tested ex-vivo on isolated rat soleus muscles. All cell cultures and tissues were maintained under hyperglycemic condition prior to the addition of the test compounds. Dose-response and time-course experiments determine which of the derivatives are subsequently tested in animal models. For each potent compound the total cell content and plasma membrane abundance of GLUT-1 and GLUT-4 was determined, as described above. The same biotinylation technique was employed to determine the total and plasma membrane content of both transporters in isolated mouse or rat soleus muscles treated with potent compounds.

The test system of another assay is GLUT-4. Description: Cell surface biotinylation and western blot of GLUT-4 in L6 myotubes. It is filed as cell-based, rat. On the procedure: as §2, §3
Surface biotinylation of the cells was performed as previously described [Sasson et al (1997), Diabetologia, 40, 30-398].

In another assay the test system is C2 myotubes. The experiment in a line: dGlc uptake assay in C2 myotubes. It is filed as cell-based, mouse. The following applies: 20 mM pentose, preconditioned with 20 mM glucose (FIG. 7). As to the method: The time-course of D-xylose effect in two types of skeletal muscle cells (L8 myocytes and C2 myotubes) was studied. L8 myocytes and C2 myotubes preconditioned in 20 mM glucose were incubated with 20 mM xylose. After 90 min the cells were washed and incubated with 20 mM glucose, and subjected to a deoxyglucose dGlc uptake assay (14).
The inventors have also measured the effect of different doses of D-xylose in C2 myotubes. C2 myotubes preconditioned with 20 mM glucose received fresh medium containing 20 mM glucose or increasing concentrations of D-xylose. Standard dGlc uptake assay was performed after 1 hr incubation. […] D-xylose augmented the rate of hexose transport ˜2-fold within 1-2 hr; half-maximal stimulation was observed within 20-30 min, as shown in FIG. 2.
However, in the above experiments the cells were exposed to D-xylose after removal of the conditioning glucose concentration. […] The inventors therefore added 20 mM D-xylose to C2 myotubes in the presence of 8 or 16 mM glucose and followed its effect.
It has shown before by the inventors of the present invention that deoxyglucose (dGlc) depresses the hexose transport system in myocytes and that a subsequent incubation with low (even no) glucose fails to reverse this effect of dGlc [Sasson, S et al (1997)]. The inventors have therefore measured the effect of D-xylose on rate of hexose transport following treatment with dGlc. In one experiment, C2 myotubes preconditioned with 2 mM glucose received fresh medium containing 2 mM dGlc. A portion of the cells were washed after 30 min and received 20 MM D-xylose or 2 mM D-glucose, and subjected to a dGlc uptake assay at different time points. In another experiment, L8 myocytes preconditioned with 2 mM glucose were washed and incubated with 2 mM xylose or 2 mM dGlc. A portion of the cells were washed again after 2 hr and incubated with 20 mM xylose, and subjected to a dGlc uptake assay at different time points.
as §1

In another assay the test system is glucose transporter. The experiment in a line: [3H]dGlc uptake with unlabeled carbohydrates (affinity for the glucose transporter) in C2 myotubes. It is filed as cell-based, mouse. The following applies: 0.1 mM dGlc, increasing unlabeled carbohydrate. As to the method: FIG. 6: Lack of affinity of D-xylose for the glucose transporters. C2 myotubes preconditioned with 20 mM glucose were subjected to [^3H]dGlc uptake assay (0.1 mM dGlc) with increasing concentrations of unlabeled dGlc, glucose or xylose. The unlabeled carbohydrates were added to the [^3H]dGlc solution in the uptake assay.
The inventors have also determined the affinity of D-xylose for the glucose transporter. C2 myotubes preconditioned with 20 mM glucose were subjected to [^3H]dGlc uptake assay (0.1 mM dGlc) in the presence of increasing concentrations of unlabeled dGlc, glucose or xylose. The results of these experiments are depicted in FIG. 6. The affinity of D-xylose for the glucose transporter is 2 orders of magnitude lower compared to glucose. The final concentration of dGlc in the assay was 0.1 mM.

As to `CO[C@H]1C(O)OC[C@@H](O)[C@@H]1O` (stereo partly shown) [2-O-methyl xylopyranose], in the assay with 3T3-L1 adipocytes, the “HEXOSE UPTAKE (Percent of Control) Without Insulin” value is 63 ± 7% of Control and the “HEXOSE UPTAKE (Percent of Control) With Insulin” value was 73 ± 15% of Control.
Take `CCSC(SCC)C1OC(c2ccccc2)OC(CO)C1OC` [EH-169, 3-O-methyl-2,4-O-benzylidene-D-xylose-diethyl-dithioacetal]: the “increase of [3H]-2-deoxy-D-glucose uptake” value in the assay on L6 myotubes (60 μM) turned out to be 1.8 fold; in the assay on L6 myotubes (120 μM), 2 fold.
For the compound `COC(OC)[C@@H]1OC(c2ccccc2)O[C@@H]2COC(c3ccccc3)O[C@@H]21` (stereo partly drawn) [EH-3, 2,4:3,5-di-O-benzylidene-D-xylose-dimethylacetal], in assay [1], the “Fold Increase of Glucose Uptake” value was 1.7 fold, the concentration for a half-maximal effect (EC50) is 125 µM and the ECmax stood at 0.3 mM.
With `COC[C@H]1OC(O)[C@H](O)[C@H]1O` (stereo partly shown) [5-O-methyl xylofuranose], in the assay with 3T3-L1 adipocytes, the “HEXOSE UPTAKE (Percent of Control) Without Insulin” value is recorded as 70 ± 5% of Control and the “HEXOSE UPTAKE (Percent of Control) With Insulin” value is on record as 53 ± 22% of Control.
`COC1OC[C@@H](O)[C@H](OC)[C@H]1O` (stereo partly shown) [EH-101, 1,3-O-dimethyl xylopyranoside]: in the assay on 3T3-L1 adipocytes, the “HEXOSE UPTAKE (Percent of Control) Without Insulin” value is 267 ± 57% of Control and the “HEXOSE UPTAKE (Percent of Control) With Insulin” value is listed as 174 ± 28% of Control. Besides, the “effect of PI3-kinase inhibitor LY-249002 on the substance's stimulation of hexose transport” value with L6 myotubes (60 μM inhibitor, 23.0 mM glucose (FIG. 11A), EH-40 data not shown) is “failed to affect”. Further, the “increase of uptake rate together with insulin” value in the assay with L6 myotubes (L6 myotubes, compound during last 24 hr plus insulin) was about 3 fold. Moreover, in assay [1], the “Fold Increase of Glucose Uptake” value was 3.0 fold, the concentration giving a half-maximal response (EC50) was found to be 2000 µM and the ECmax was determined as 4 mM. Also, in assay [1] (after being washed from cell cultures), the “duration of activity following removal from the culture media” value came to 24 h. The “total cell content of GLUT-4” value in the assay with GLUT-4 (L6 cells exposed to 23.0 mM glucose (FIG. 10)) is “increased the total content of the transporter”. The “translocation of GLUT-4 to the plasma membrane” value in the assay with GLUT-4 (L6 myotubes, xylose derivatives in the absence of insulin, insulin 500 nM (FIG. 10)) was “induced significant translocation of GLUT-4 to the plasma membrane”.
Take `CO[C@@H]1COC(O)[C@H](O)[C@H]1O` (stereo partly shown) [4-O-methyl xylopyranose]: in the assay with 3T3-L1 adipocytes, the “HEXOSE UPTAKE (Percent of Control) Without Insulin” value was 72 ± 112% of Control and the “HEXOSE UPTAKE (Percent of Control) With Insulin” value is reported as 111 ± 2% of Control.
In the case of `O=C[C@@H](O)[C@@H](O)[C@H](O)CO` [D-lyxose], in the assay on C2 myotubes, the “effect of pentoses on the rate of hexose transport” value is “to a lesser extent”.
Take `COC1OC[C@@H](OC)[C@H](OC)[C@H]1OC` (stereo partly shown) [1,2,3,4-O-tetramethyl xylopyranoside]: in the assay on 3T3-L1 adipocytes, the “HEXOSE UPTAKE (Percent of Control) Without Insulin” value was 95 ± 7% of Control and the “HEXOSE UPTAKE (Percent of Control) With Insulin” value is reported as 104 ± 8% of Control.
On to `O=C[C@H](O)[C@H](O)[C@H](O)CO` [D-ribose], for which, in the assay with C2 myotubes, the “effect of pentoses on the rate of hexose transport” value is “to a lesser extent”.
Consider `CCO[C@@H]([C@H](O)CO)[C@@H](O)C=O` [3-O-ethyl D-xylose], for which, in assay [1], the “Fold Increase of Glucose Uptake” value stood at 2.3 fold; the midpoint of the response, the EC50, lay at 1300 µM; the ECmax amounted to 4 mM.
The like results for “di-4-(1-O-methyl-xylopyranoside)-phosphoryl-PEG-O-methyl [1-O-methyl D-xylose-PEG]” were, in that order, 1.9 fold, 300 µM and 0.6 mM.
Consider `CCS[C@@H]1OC[C@@H](O)[C@H](O)[C@H]1O` [EH-143, β-ethylthio-D-xylopyranoside], for which, in assay [1], the “hexose transport augmenting activity of thioalkyl derivatives” value was “hexose transport augmenting activity”.
As for `O=CC[C@@H](O)[C@H](O)[C@H](O)CO` [dGlc, 2-deoxy-D-glucose], the “competition with [3H]dGlc” value in the assay with glucose transporter was “competed markedly and similarly”.
For the compound `COC1OC[C@@H](O)[C@H](O)[C@H]1O` (stereo partly shown) [1-O-methyl xylopyranoside], in the assay with 3T3-L1 adipocytes, the “HEXOSE UPTAKE (Percent of Control) Without Insulin” value is 154 ± 4% of Control and the “HEXOSE UPTAKE (Percent of Control) With Insulin” value is on record as 156 ± 24% of Control. Moreover, in assay [1], the “Fold Increase of Glucose Uptake” value turned out to be 1.5 fold; the midpoint of the response, the EC50, lay at 6000 µM; the ECmax is on record as 10 mM.
For `CO[C@H]1[C@H](O)COC(O)[C@@H]1O` (stereo partly shown) [3-O-methyl xylopyranose], in that order: 201 ± 30% of Control, 159 ± 7% of Control, 2.0 fold, 2000 µM and 4 mM.
